{"source": "patent US11788112B2", "about": "“L-2-hydroxyglutarate and stress induced metabolism” (Memorial Sloan-Kettering Cancer Center, priority 2014, dated 2023)", "key": {"[1]": {"tested_on": "SF188 cells", "test": "Intracellular 2HG by GC-MS in SF188 cells supplemented with cell-permeable α-KG", "type": "cell-based, human", "conditions": "48 hr, 5 mM dimethyl-α-KG vs vehicle (DMSO)", "experimental": "FIG. 2 depicts quantified results of GC-MS histograms showing that hypoxia-induced L-2HG originates from glutamine-derived α-ketoglutarate. Panels in (A and B) are line-drawings showing the fraction of intracellular 2HG labeled by ^13C at the indicated time. Isotope tracing was performed in SF188 cells cultured in medium containing either [U-^13C]glucose or [U-^13C]glutamine. […] Panels in (C) are bar graphs showing normalized 2HG. SF188 cells were cultured for 48 hr in 21% or 0.5% O2 in the presence of vehicle (DMSO) or 5 mM dimethyl-α-KG. Total intracellular 2HG was assessed by GC-MS. […] Representative data from 1 of 3 independent experiments are shown. Panels in (D and E) are GC-MS histograms showing 2HG ions in different conditions. SF188 cells were cultured as in (C), then chiral derivatization of metabolites was performed to allow separation of 2HG enantiomers by GC-MS. Panels in (D) show an overlay of GC-MS histograms for 2HG on the same scale. […]\nMetabolites were extracted with 1 mL ice-cold 80% methanol supplemented with 2 micromolar deuterated 2-hydroxyglutarate (D-2-hydroxyglutaric-2,3,3,4,4-d5 acid; deuterated-D-2HG) as an internal standard. […] Samples were analyzed using an Agilent 7890A GC coupled to Agilent 5975C mass selective detector. […] Ions used for quantification of metabolite levels were 2HG m/z 247 and deuterated-2HG m/z 252. […]"}, "[2]": {"molecular_target": "T1, KDM4C (Homo sapiens, UniProt Q9H3R0)", "T1 sequence (Q9H3R0 1-1056)": "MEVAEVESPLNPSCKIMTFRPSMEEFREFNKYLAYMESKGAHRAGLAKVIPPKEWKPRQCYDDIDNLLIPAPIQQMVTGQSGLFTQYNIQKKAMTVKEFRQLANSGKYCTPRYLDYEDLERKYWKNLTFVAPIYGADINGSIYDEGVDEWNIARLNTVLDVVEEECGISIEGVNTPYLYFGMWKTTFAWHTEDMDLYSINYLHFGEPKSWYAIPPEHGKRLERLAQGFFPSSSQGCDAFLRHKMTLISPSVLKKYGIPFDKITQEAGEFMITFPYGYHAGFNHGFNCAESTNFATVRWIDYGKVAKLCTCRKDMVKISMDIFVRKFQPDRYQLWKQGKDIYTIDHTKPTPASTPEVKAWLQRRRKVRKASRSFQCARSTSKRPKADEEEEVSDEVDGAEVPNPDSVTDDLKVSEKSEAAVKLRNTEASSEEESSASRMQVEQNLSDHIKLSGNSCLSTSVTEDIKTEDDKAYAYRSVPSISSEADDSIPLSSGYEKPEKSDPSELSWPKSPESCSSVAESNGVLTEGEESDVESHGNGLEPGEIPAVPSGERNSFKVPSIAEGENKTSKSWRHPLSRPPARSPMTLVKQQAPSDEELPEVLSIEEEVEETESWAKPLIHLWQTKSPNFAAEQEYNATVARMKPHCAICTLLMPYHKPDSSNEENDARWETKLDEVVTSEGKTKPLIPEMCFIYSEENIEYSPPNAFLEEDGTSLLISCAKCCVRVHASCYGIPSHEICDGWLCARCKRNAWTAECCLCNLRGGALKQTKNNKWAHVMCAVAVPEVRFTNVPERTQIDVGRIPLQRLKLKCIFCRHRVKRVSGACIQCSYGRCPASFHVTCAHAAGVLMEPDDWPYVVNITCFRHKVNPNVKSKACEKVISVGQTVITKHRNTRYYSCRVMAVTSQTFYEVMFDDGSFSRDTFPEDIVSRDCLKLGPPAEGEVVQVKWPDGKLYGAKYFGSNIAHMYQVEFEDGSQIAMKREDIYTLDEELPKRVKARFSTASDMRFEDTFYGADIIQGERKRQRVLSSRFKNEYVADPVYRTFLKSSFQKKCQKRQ", "conditions": "prior reports (Chowdhury et al., 2011; Lu et al., 2012); cited from earlier work"}, "[3]": {"molecular_target": "T2, purified human KDM4C (Homo sapiens, UniProt Q9H3R0)", "T2 construct": "GST; purchased BPS Bioscience", "T2 sequence (Q9H3R0 1-1056)": "T1 sequence (Q9H3R0 1-1056)", "test": "In vitro histone demethylase assay (H3K9me3 by Western blot)", "type": "biochemical", "conditions": "bulk histones, α-KG 1 mM, 37° C. for 4 hr, various concentrations"}}}
{"molecule": "COC(=O)CCC(=O)C(=O)OC", "note": "[dimethyl-α-KG, dimethyl alpha-ketoglutarate]", "values": [{"measurement": "increase in intracellular 2HG", "setting": "[1]; hypoxia (0.5% O2), confirmed to be L-2HG by chiral derivatization", "value": "~100", "unit": "fold"}, {"measurement": "increase in intracellular 2HG", "setting": "[1]; normoxia (21% O2)", "value": "modest increase"}]}
{"molecule": "D-2-hydroxyglutarate [D-2HG]", "values": [{"measurement": "inhibition of KDM4C", "setting": "[2]", "value": "roughly comparable inhibition"}]}
{"molecule": "O=C(O)CC[C@H](O)C(=O)O", "note": "[L-2HG, L-2-hydroxyglutarate]", "values": [{"measurement": "inhibition of KDM4C", "setting": "[2]", "value": "roughly comparable inhibition"}, {"measurement": "inhibition of KDM4C demethylation of H3K9me3", "setting": "[3]", "value": "sensitive to inhibition by L-2HG, in a dose dependent manner"}]}
